# Laboratory results reported in patent US20250331542A1, “SWEETENER COMPOSITIONS” (Firmenich SA, priority 2022, published 2025).
# Assays:
# Format in all cases: in vivo, human
# [1] = tested on: sweet taste of a water solution containing 4% sucrose; assay: Sensory panel, sweet taste in sucrose solution; details: for Intensity (sweet): Sucrose solution; for sweet enhancing effect for a sucrose solution (in words): summary of Tables 1-12
# Text: (§1) Methodology: A panel consisted of 8 to 25 trained panelists evaluating the samples for taste properties (sweet, and/or sweet off-taste such as lingering) on a scale of −5 to 5 (−5 denoted strong masking effect and 5 denoted strong enhancing effect, 0 being the intensity of a reference water solution containing 4% sucrose or 0.02% SG95 stevia product).
# [2] = tested on: sweet taste of a water solution containing 0.02% SG95 stevia product; assay: Sensory panel, sweet taste in SG95 stevia product solution; details: for Intensity (sweet): scale -5 to 5, 0 = reference 0.02% SG95; for sweet enhancing effect for an SG95 stevia product solution (in words): summary of Tables 5-6
# Text: as §1
# [3] = tested on: lingering (sweet off-taste) of a water solution containing 0.02% SG95 stevia product; assay: Sensory panel, lingering off-taste in SG95 stevia product solution
# Text: as §1
# [4] = dosage 10 ppm, scale -5 (strong masking) to 5 (strong enhancing), 0 = reference 4% sucrose
# [5] = dosage 40 ppm, scale -5 to 5, 0 = reference 4% sucrose
SMILES,"Intensity (sweet) [1, 4]",sweet enhancing effect for a sucrose solution (in words) [1],further results
O=c1cc(-c2ccc(O)cc2)oc2c([C@@H]3O[C@H](CO)[C@@H](O)[C@H](O)[C@H]3O)c(O)cc(O)c12 [Compound 23],0.50,significant sweet enhancing effect,–
"C[C@@H]1O[C@@H](c2c(O)cc3c(c2O)C(=O)CC(c2ccc(O)cc2)O3)[C@H](O)[C@H](O)[C@H]1O (stereo partly drawn) [Compound 15, naringenin 6-C-rhamnoside]",–,sweet enhancing effect,–
"O=c1cc(-c2ccc(O)c(O)c2)oc2c([C@@H]3O[C@H](CO)[C@@H](O)[C@H](O)[C@H]3O)c(O)cc(O)c12 [Compound 18, orientin]",–,significant sweet enhancing effect,"Intensity (sweet) [1, 5]: 0.50"
"O=C(CCc1ccc(O)cc1)c1c(O)cc(O[C@@H]2O[C@H](CO)[C@@H](O)[C@H](O)[C@H]2O)c([C@@H]2O[C@H](CO)[C@@H](O)[C@H](O)[C@H]2O)c1O [Compound 13, trilobatin 3′-C-β-D glucoside]",0.67,significant sweet enhancing effect,–
"CC1OC(c2c(O)cc3c(c2O)C(=O)CC(c2ccc(O)cc2)O3)C(O)C(O)C1O (stereo not drawn) [Compound 16, naringenin 6-C-rhamnoside]",–,sweet enhancing effect,–
"COc1ccc(C2CC(=O)c3c(cc(O)c([C@@H]4O[C@H](CO)[C@@H](O)[C@H](O)[C@H]4O)c3O)O2)cc1O (stereo partly drawn) [Compound 7, hesperetin 6-C-β-D glucoside]",0.57,significant sweet enhancing effect,–
"O=C(CCc1ccc(O)cc1)c1c(O)c([C@@H]2O[C@H](CO)[C@@H](O)[C@H](O)[C@H]2O)c(O)c([C@@H]2O[C@H](CO)[C@@H](O)[C@H](O)[C@H]2O)c1O [Compound 22, Phloretin-3′,5′-di-C-β-D-glucoside]",–,sweet enhancing effect,"Intensity (sweet) ([2]; dosage 40 ppm): 0.25; sweet enhancing effect for an SG95 stevia product solution (in words) [2]: sweet enhancing effect; Intensity (lingering) ([3]; dosage 40 ppm, scale -5 (strong masking) to 5, 0 = reference 0.02% SG95): −0.33; off taste masking effect for an SG95 stevia product solution (in words) ([3]; lingering): lingering masking; Intensity (sweet) [1, 5]: 0.23"
"O=c1cc(-c2ccc(O)c(O)c2)oc2cc(O)c([C@@H]3O[C@H](CO)[C@@H](O)[C@H](O)[C@H]3O)c(O)c12 [Compound 17, Isoorientin]",–,sweet enhancing effect,"Intensity (sweet) [1, 5]: 0.25"
"O=C1CC(c2ccc(O)cc2)Oc2cc(O)c([C@@H]3O[C@H](CO)[C@@H](O)[C@H](O)[C@H]3O)c(O)c21 (stereo partly drawn) [Compound 1, naringenin 6-C-β-D glucoside]",0.49,significant sweet enhancing effect,–
"O=C(CCc1ccc(O)cc1)c1c(O)cc(O)c([C@@H]2O[C@H](CO)[C@@H](O)[C@H](O)[C@H]2O)c1O [Compound 21, nothofagin]",0.46,significant sweet enhancing effect,Intensity (sweet) ([2]; dosage 20 ppm): 0.25; sweet enhancing effect for an SG95 stevia product solution (in words) [2]: sweet enhancing effect
"O=C(CCc1ccc(O)c(O)c1)c1c(O)cc(O)c([C@@H]2O[C@H](CO)[C@@H](O)[C@H](O)[C@H]2O)c1O [Compound 20, aspalathin]",0.42,significant sweet enhancing effect,–
"O=C1CC(c2ccc(O)c(O)c2)Oc2cc(O)c([C@@H]3O[C@H](CO)[C@@H](O)[C@H](O)[C@H]3O)c(O)c21 (stereo partly drawn) [Compound 4, eriodictyol 6-C-β-D glucoside]",0.64,significant sweet enhancing effect,–
"COc1ccc(C2CC(=O)c3c(O)c([C@@H]4O[C@H](CO)[C@@H](O)[C@H](O)[C@H]4O)c(O)c([C@@H]4O[C@H](CO)[C@@H](O)[C@H](O)[C@H]4O)c3O2)cc1O (stereo partly drawn) [Compound 9, hesperetin 6,8-di-C-β-D glucoside]",0.31,sweet enhancing effect,–
